Test results: PMC9516332 (Frontiers in Oncology, 2022)
Where two headings read alike, the source gives them in different places.

Experiments:
[1] = molecular target: panel of 255 wild-type kinases (Homo sapiens, UniProt Q9Y5S2); experiment: Kinase panel profiling at 1 µmol/L (MSA or IMAP), percentage inhibition; type: biochemical; settings: read-out: %-inhibition, MRCKβ
[2] = molecular target: panel of 255 wild-type kinases (Homo sapiens, UniProt P24723); experiment: as above; type: biochemical; settings: read-out: %-inhibition at 1 µmol/L, PKCη
[3] = molecular target: T1, panel of 255 wild-type kinases (Homo sapiens, UniProt Q8NE63); experiment: as above; type: biochemical; settings: read-out: %-inhibition at 1 µmol/L, HIPK4
T1 sequence (Q8NE63 1-616): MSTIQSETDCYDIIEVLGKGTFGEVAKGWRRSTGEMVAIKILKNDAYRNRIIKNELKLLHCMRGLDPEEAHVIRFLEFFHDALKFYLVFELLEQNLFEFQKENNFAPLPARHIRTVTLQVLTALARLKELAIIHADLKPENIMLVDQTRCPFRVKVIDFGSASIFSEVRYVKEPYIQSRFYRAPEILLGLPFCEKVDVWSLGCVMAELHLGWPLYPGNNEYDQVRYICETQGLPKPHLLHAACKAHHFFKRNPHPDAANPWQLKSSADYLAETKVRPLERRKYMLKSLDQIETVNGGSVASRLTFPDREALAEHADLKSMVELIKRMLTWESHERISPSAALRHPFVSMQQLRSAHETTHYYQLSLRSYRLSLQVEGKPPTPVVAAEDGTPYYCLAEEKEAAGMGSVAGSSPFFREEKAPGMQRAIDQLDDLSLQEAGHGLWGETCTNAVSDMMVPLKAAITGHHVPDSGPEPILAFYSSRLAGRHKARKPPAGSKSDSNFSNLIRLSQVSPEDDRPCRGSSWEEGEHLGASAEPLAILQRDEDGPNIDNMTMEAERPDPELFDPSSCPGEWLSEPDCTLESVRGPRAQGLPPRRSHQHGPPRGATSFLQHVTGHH

[4] = molecular target: panel of 255 wild-type kinases (Homo sapiens, UniProt Q15759); experiment: as above; type: biochemical; settings: read-out: %-inhibition, p38β
[5] = molecular target: panel of 255 wild-type kinases (Homo sapiens, UniProt P54756); experiment: as above; type: biochemical; settings: read-out: %-inhibition at 1 µmol/L, EPHA5
[6] = molecular target: panel of 255 wild-type kinases (Homo sapiens, UniProt Q9H0K1); experiment: as above; type: biochemical; settings: read-out: %-inhibition at 1 µmol/L, QIK
[7] = molecular target: T2, panel of 255 wild-type kinases (Homo sapiens, UniProt Q12851); experiment: as above; type: biochemical; settings: read-out: %-inhibition at 1 µmol/L, MAP4K2
T2 sequence (Q12851 1-820): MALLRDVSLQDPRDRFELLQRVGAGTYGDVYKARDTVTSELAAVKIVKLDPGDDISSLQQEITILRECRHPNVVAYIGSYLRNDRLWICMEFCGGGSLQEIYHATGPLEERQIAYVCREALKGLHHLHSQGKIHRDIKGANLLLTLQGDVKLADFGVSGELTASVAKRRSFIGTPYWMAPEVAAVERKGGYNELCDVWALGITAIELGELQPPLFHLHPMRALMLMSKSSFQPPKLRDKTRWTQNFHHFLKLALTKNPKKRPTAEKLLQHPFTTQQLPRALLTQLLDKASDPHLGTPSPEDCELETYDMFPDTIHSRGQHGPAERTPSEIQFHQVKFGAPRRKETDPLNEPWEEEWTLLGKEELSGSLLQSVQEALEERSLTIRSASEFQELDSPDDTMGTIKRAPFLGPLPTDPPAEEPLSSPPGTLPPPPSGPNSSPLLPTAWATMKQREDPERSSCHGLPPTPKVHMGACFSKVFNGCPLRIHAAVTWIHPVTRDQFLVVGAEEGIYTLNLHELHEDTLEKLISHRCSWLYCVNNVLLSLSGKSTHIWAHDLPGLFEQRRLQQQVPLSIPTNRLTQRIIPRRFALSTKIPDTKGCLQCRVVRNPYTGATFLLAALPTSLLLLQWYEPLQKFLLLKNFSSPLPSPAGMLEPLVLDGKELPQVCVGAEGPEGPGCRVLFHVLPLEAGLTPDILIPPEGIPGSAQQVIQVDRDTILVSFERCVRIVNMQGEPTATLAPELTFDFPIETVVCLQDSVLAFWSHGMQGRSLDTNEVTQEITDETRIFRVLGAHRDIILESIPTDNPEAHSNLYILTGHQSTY

[8] = molecular target: panel of 255 wild-type kinases (Homo sapiens, UniProt Q13153); experiment: as above; type: biochemical; settings: read-out: %-inhibition, PAK1
[9] = molecular target: panel of 255 wild-type kinases (Homo sapiens, UniProt P06241); experiment: as above; type: biochemical; settings: read-out: %-inhibition at 1 µmol/L, FYN [isoform a]
[10] = molecular target: panel of 255 wild-type kinases (Homo sapiens, UniProt Q9H2X6); experiment: as above; type: biochemical; settings: read-out: %-inhibition at 1 µmol/L, HIPK2
[11] = molecular target: panel of 255 wild-type kinases (Homo sapiens, UniProt Q9H4A3); experiment: as above; type: biochemical; settings: read-out: %-inhibition at 1 µmol/L, WNK1
[12] = molecular target: panel of 255 wild-type kinases (Homo sapiens, UniProt P68400); experiment: as above; type: biochemical; settings: read-out: %-inhibition at 1 µmol/L, CK2α1/β
[13] = MRCKβ, 1 µmol/L single concentration
[14] = kinase PKCη, 1 µmol/L single concentration
[15] = kinase HIPK4, 1 µmol/L single concentration
[16] = p38β, 1 µmol/L single concentration
[17] = kinase EPHA5, 1 µmol/L single concentration
[18] = kinase QIK, 1 µmol/L single concentration
[19] = kinase MAP4K2, 1 µmol/L single concentration
[20] = PAK1, 1 µmol/L single concentration
[21] = kinase FYN [isoform a], 1 µmol/L single concentration
[22] = kinase HIPK2, 1 µmol/L single concentration
[23] = kinase WNK1, 1 µmol/L single concentration
[24] = kinase CK2α1/β, 1 µmol/L single concentration

SMILES	inhibition at 1 µM [1, 13] [%]	inhibition at 1 µM [2, 14] [%]	inhibition at 1 µM [3, 15] [%]	inhibition at 1 µM [4, 16] [%]	inhibition at 1 µM [5, 17] [%]	inhibition at 1 µM [6, 18] [%]	inhibition at 1 µM [7, 19] [%]	inhibition at 1 µM [8, 20] [%]	inhibition at 1 µM [9, 21] [%]	inhibition at 1 µM [10, 22] [%]	inhibition at 1 µM [11, 23] [%]	inhibition at 1 µM [12, 24] [%]	IC50 (134 cancer cell lines) [nM]	other results
Cc1nc(NC(=O)N2CCC[C@H]2C(N)=O)sc1-c1ccnc(C(C)(C)C(F)(F)F)c1 [alpelisib]	-7	1.42	64	1	0.272	2.48	5.56	-3.29	1.52	3.33	-4	-1.52	534	
Cn1cc(-c2cc3c(N4CCN(c5ncc([C@@](C)(N)c6ccc(F)cc6)cn5)CC4)ncnn3c2)cn1 [avapritinib]	12	-5	46	-2.41	41	44	14	0.845	57	4	-5.32	-3.77		
Cn1cnc2c(F)c(Nc3ccc(Br)cc3F)c(C(=O)NOCCO)cc21 [binimetinib]	1.58	6	-3.77	0.0465	-2.36	-4	-1.27	5	3.76	-4.27	-3.5	-4.22		
CNC(=O)c1ccc(-c2cnc3ncc(Cc4ccc5ncccc5c4)n3n2)cc1F [capmatinib]														inhibition at 1 µM [1]: -1.73%; inhibition at 1 µM [2]: -8.53%; inhibition at 1 µM [3]: 3.67%; inhibition at 1 µM [4]: -2.57%; inhibition at 1 µM [5]: -13%; inhibition at 1 µM [6]: -2.24%; inhibition at 1 µM [7]: -0.216%; inhibition at 1 µM [8]: 4.66%; inhibition at 1 µM [9]: -2%; inhibition at 1 µM [10]: 0.264%; inhibition at 1 µM [11]: -5%; inhibition at 1 µM [12]: -3.18%
Cc1cc(Nc2ncc(Cl)c(Nc3ccccc3S(=O)(=O)C(C)C)n2)c(OC(C)C)cc1C1CCNCC1 [ceritinib]													3850	
O=C(c1ccc(F)c(F)c1Nc1ccc(I)cc1F)N1CC(O)([C@@H]2CCCCN2)C1 [cobimetinib]													56	
CC(C)(C)c1nc(-c2cccc(NS(=O)(=O)c3c(F)cccc3F)c2F)c(-c2ccnc(N)n2)s1 [dabrafenib]													1080	
COc1cc2ncnc(Nc3ccc(F)c(Cl)c3)c2cc1NC(=O)/C=C/CN1CCCCC1 [dacomitinib]	8	11	85	8.44	34	68	-2.38	0.38	32	4.76	-4	-4	18	
C[C@H](Nc1ncnc2nc[nH]c12)c1cc2cccc(Cl)c2c(=O)n1-c1ccccc1 [duvelisib]	-7	0.743	5	0.677	0.787	2.15	2.36	-0.68	0.67	0.116	-3	-2.47	4240	
C[C@H]1Oc2cc(cnc2N)-c2c(nn(C)c2C#N)CN(C)C(=O)c2ccc(F)cc21 [lorlatinib]	2.78	0.817	2.62	1.15	38	2.53	20	-2.12	15	-2	0.826	-2		
CCN1C(=O)N(c2c(F)c(OC)cc(OC)c2F)Cc2cnc3[nH]c(CN4CCOCC4)cc3c21 [pemigatinib]	-4.4	5	28	6	-2	6.5	8	-3.62	9	2.55	-3.59	-2.8		
CCn1c(=O)c(-c2cc(NC(=O)Nc3ccccc3)c(F)cc2Br)cc2cnc(NC)cc21 [ripretinib]	-1.41	0.077	98	88	100	7	44	0.719	23	0.0334	-5	1		
CC(=O)Nc1cccc(-n2c(=O)n(C3CC3)c(=O)c3c(Nc4ccc(I)cc4F)n(C)c(=O)c(C)c32)c1 [trametinib]													76	
CCCS(=O)(=O)Nc1ccc(F)c(C(=O)c2c[nH]c3ncc(-c4ccc(Cl)cc4)cc23)c1F [vemurafenib]													> 31600	
C=CC(=O)N1CCC([C@@H]2CCNc3c(C(N)=O)c(-c4ccc(Oc5ccccc5)cc4)nn32)CC1 [zanubrutinib]	-1.23	4.22	7	4.54	0.0392	-4	-2.68	-2.56		-0.321	0	-2		
